Source: patent US10385057B2, “Pyrazole compounds and methods of making and using same” (Lundbeck La Jolla Research Center, Inc., priority 2015, dated 2019)

Columns and labels:
[1] = biological target: T1, FAAH (Mus musculus, UniProt O08914); experiment: In vitro competitive activity-based protein profiling, mouse FAAH; format: biochemical; conditions: for inhibition at 1 µM: read-out: FAAH % inh. 1 μM (mouse); for inhibition at 10 µM: read-out: FAAH % inh. at 10 μM (mouse)
T1 construct: mouse brain membrane fraction or cell lysates for mouse assays; from tissue
T1 sequence (O08914 1-579): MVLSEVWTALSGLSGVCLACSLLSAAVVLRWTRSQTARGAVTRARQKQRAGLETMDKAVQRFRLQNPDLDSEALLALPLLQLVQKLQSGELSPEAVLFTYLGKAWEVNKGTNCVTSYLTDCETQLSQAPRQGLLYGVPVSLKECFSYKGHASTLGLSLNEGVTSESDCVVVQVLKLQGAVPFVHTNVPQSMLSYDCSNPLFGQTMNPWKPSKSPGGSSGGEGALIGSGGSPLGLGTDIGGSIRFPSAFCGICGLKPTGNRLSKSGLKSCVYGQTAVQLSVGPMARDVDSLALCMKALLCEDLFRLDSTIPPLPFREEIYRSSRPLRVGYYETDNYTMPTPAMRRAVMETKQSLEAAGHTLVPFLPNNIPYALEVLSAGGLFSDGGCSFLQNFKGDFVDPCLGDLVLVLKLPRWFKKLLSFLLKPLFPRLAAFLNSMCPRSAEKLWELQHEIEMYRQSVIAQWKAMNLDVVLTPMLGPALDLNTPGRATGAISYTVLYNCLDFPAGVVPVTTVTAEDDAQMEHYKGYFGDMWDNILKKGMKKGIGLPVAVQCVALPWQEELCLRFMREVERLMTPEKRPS
Experimental: (§1) In Vitro Competitive Activity-Based Protein Profiling.
(§2) Proteomes (mouse brain membrane fraction or cell lysates for mouse assays; human prefrontal cortex or cell membrane fractions for human assays) (50 μL, 1.0 mg/mL total protein concentration) were preincubated with varying concentrations of inhibitors at 37° C. After 30 min, FP-Rh or HT-01 (1.0 μL, 50 μM in DMSO) was added and the mixture was incubated for another 30 min at 37° C. Reactions were quenched with SDS loading buffer (15 μL—4×) and run on SDS-PAGE. Following gel imaging, serine hydrolase activity was determined by measuring fluorescent intensity of gel bands corresponding to MAGL and FAAH using ImageJ 1.43u software.

[2] = biological target: T2, MAGL (Mus musculus, UniProt O35678); experiment: In vitro competitive activity-based protein profiling, mouse MAGL; format: biochemical; conditions: for inhibition at 1 µM: read-out: MAGL % inh. 1 μM (mouse); for inhibition at 10 µM: read-out: MAGL % inh. at 10 μM (mouse)
T2 construct: mouse brain membrane fraction or cell lysates for mouse assays; from tissue
T2 sequence (O35678 1-303): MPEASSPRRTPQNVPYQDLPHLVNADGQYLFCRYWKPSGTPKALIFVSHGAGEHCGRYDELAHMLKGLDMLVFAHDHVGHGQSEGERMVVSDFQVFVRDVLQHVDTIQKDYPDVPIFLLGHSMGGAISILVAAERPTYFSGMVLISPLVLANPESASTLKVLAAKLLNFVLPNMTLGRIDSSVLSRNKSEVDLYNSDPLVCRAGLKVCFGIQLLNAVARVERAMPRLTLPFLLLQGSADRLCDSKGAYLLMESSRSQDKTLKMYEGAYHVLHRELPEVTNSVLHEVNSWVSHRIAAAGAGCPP
Experimental: as §1, §2

Compound	IC50 [1] [nM]	inhibition at 1 µM [1] [%]	IC50 [2] [nM]	inhibition at 1 µM [2] [%]	inhibition at 10 µM [1] [%]	inhibition at 10 µM [2] [%]
CNC(=O)c1cnn(C(=O)N2CC3CN(Cc4ccc(Cl)cc4)CC3C2)c1 (stereo not shown) [Example 17, 1-(5-(4-chlorobenzyl)octahydropyrrolo[3,4-c]pyrrole-2-carbonyl)-N-methyl-1H-pyrazole-4-carboxamide]	≤ 100	≥ 75	1000 to 10000	50 to 75	–	–
NC(=O)c1cnn(C(=O)N2CC3CN(Cc4ccc(C(F)(F)F)cc4)CC3C2)c1 (stereo not shown) [Example 18, 1-(5-(4-(trifluoromethyl)benzyl)octahydropyrrolo[3,4-c]pyrrole-2-carbonyl)-1H-pyrazole-4-carboxamide]	≤ 100	≥ 75	≤ 100	≥ 75	–	–
CNC(=O)c1cnn(C(=O)N2CC3CN(Cc4ccc(C(F)(F)F)cc4)CC3C2)c1 (stereo not shown) [Example 19, N-methyl-1-(5-(4-(trifluoromethyl)benzyl)octahydropyrrolo[3,4-c]pyrrole-2-carbonyl)-1H-pyrazole-4-carboxamide]	≤ 100	≥ 75	100 to 1000	≥ 75	–	–
NC(=O)c1cnn(C(=O)N2CC3CN(Cc4cc(Cl)ccc4Cl)CC3C2)c1 (stereo not shown) [Example 20, 1-(5-(2,5-dichlorobenzyl)octahydropyrrolo[3,4-c]pyrrole-2-carbonyl)-1H-pyrazole-4-carboxamide]	≤ 100	≥ 75	≤ 100	≥ 75	–	–
CNC(=O)c1cnn(C(=O)N2CC3CN(Cc4cc(Cl)ccc4Cl)CC3C2)c1 (stereo not shown) [Example 21, 1-(5-(2,5-dichlorobenzyl)octahydropyrrolo[3,4-c]pyrrole-2-carbonyl)-N-methyl-1H-pyrazole-4-carboxamide]	≤ 100	≥ 75	100 to 1000	≥ 75	–	–
O=C(c1cnn(C(=O)N2CC3CN(Cc4cc(Cl)ccc4Cl)CC3C2)c1)N1CCCC1 (stereo not shown) [Example 22, (5-(2,5-dichlorobenzyl)hexahydropyrrolo[3,4-c]pyrrol-2(1H)-yl)(4-(pyrrolidine-1-carbonyl)-1H-pyrazol-1-yl)methanone]	–	≥ 75	–	≥ 75	–	–
NC(=O)c1cnn(C(=O)N2CC3CN(Cc4cccc(C(F)(F)F)c4)CC3C2)c1 (stereo not shown) [Example 23, 1-(5-(3-(trifluoromethyl)benzyl)octahydropyrrolo[3,4-c]pyrrole-2-carbonyl)-1H-pyrazole-4-carboxamide]	–	≥ 75	–	≥ 75	–	–
CNC(=O)c1cnn(C(=O)N2CC3CN(Cc4cccc(C(F)(F)F)c4)CC3C2)c1 (stereo not shown) [Example 24, N-methyl-1-(5-(3-(trifluoromethyl)benzyl)octahydropyrrolo[3,4-c]pyrrole-2-carbonyl)-1H-pyrazole-4-carboxamide]	≤ 100	≥ 75	≤ 100	≥ 75	–	–
NC(=O)c1cnn(C(=O)N2CC3CN(Cc4cc(Cl)cc(C(F)(F)F)c4)CC3C2)c1 (stereo not shown) [Example 25, 1-(5-(3-chloro-5-(trifluoromethyl)benzyl)octahydropyrrolo[3,4-c]pyrrole-2-carbonyl)-1H-pyrazole-4-carboxamide]	≤ 100	≥ 75	≤ 100	≥ 75	–	–
CNC(=O)c1cnn(C(=O)N2CC3CN(Cc4cc(Cl)cc(C(F)(F)F)c4)CC3C2)c1 (stereo not shown) [Example 26, 1-(5-(3-chloro-5-(trifluoromethyl)benzyl)octahydropyrrolo[3,4-c]pyrrole-2-carbonyl)-N-methyl-1H-pyrazole-4-carboxamide]	–	≥ 75	–	≥ 75	–	–
CNC(=O)c1cnn(C(=O)N2CC3CN(Cc4ccc(N5CCOCC5)cc4C(F)(F)F)CC3C2)c1 (stereo not shown) [Example 27, N-methyl-1-(5-(4-morpholino-2-(trifluoromethyl)benzyl)octahydropyrrolo[3,4-c]pyrrole-2-carbonyl)-1H-pyrazole-4-carboxamide]	–	≥ 75	–	≥ 75	–	–
O=C(c1cnn(C(=O)N2CCC3(CCN(Cc4cc(Cl)ccc4Cl)C3)C2)c1)N1CCCC1 (stereo not shown) [Example 28, (1-(7-(2,5-dichlorobenzyl)-2,7-diazaspiro[4.4]nonane-2-carbonyl)-1H-pyrazol-4-yl)(pyrrolidin-1-yl)methanone]	–	≥ 75	–	25 to 50	–	–
O=C(c1cnn(C(=O)N2CCC3(CCN(Cc4cc(Cl)ccc4Cl)C3)C2)c1)N1CCOCC1 (stereo not shown) [Example 29, (1-(7-(2,5-dichlorobenzyl)-2,7-diazaspiro[4.4]nonane-2-carbonyl)-1H-pyrazol-4-yl)(morpholino)methanone]	–	≥ 75	–	0 to 25	100	100
O=C(c1cnn(C(=O)N2CCC3(CCN(Cc4cc(Cl)ccc4Cl)C3)C2)c1)N1CCN(C2CC2)CC1 (stereo not shown) [Example 30, (4-cyclopropylpiperazin-1-yl)(1-(7-(2,5-dichlorobenzyl)-2,7-diazaspiro[4.4]nonane-2-carbonyl)-1H-pyrazol-4-yl)methanone]	–	≥ 75	–	≥ 75	–	–
O=C(c1cnn(C(=O)N2CCC3(CCN(Cc4cccc(C(F)(F)F)c4)C3)C2)c1)N1CCCC1 (stereo not shown) [Example 31, pyrrolidin-1-yl(1-(7-(3-(trifluoromethyl)benzyl)-2,7-diazaspiro[4.4]nonane-2-carbonyl)-1H-pyrazol-4-yl)methanone]	–	≥ 75	–	25 to 50	–	–
O=C(c1cnn(C(=O)N2CCC3(CCN(Cc4cccc(C(F)(F)F)c4)C3)C2)c1)N1CCOCC1 (stereo not shown) [Example 32, (4-(morpholine-4-carbonyl)-1H-pyrazol-1-yl)(7-(3-(trifluoromethyl)benzyl)-2,7-diazaspiro[4.4]nonan-2-yl)methanone]	–	≥ 75	–	0 to 25	100	50
O=C(c1cnn(C(=O)N2CCC3(CCN(Cc4cccc(C(F)(F)F)c4)C3)C2)c1)N1CCN(C2CC2)CC1 (stereo not shown) [Example 33, (4-cyclopropylpiperazin-1-yl)(1-(7-(3-(trifluoromethyl)benzyl)-2,7-diazaspiro[4.4]nonane-2-carbonyl)-1H-pyrazol-4-yl)methanone]	–	50 to 75	–	≥ 75	–	–
O=C(c1cnn(C(=O)N2CCC3(CCN(Cc4cc(Cl)cc(C(F)(F)F)c4)C3)C2)c1)N1CCCC1 (stereo not shown) [Example 34, (1-(7-(3-chloro-5-(trifluoromethyl)benzyl)-2,7-diazaspiro[4.4]nonane-2-carbonyl)-1H-pyrazol-4-yl)(pyrrolidin-1-yl)methanone]	–	≥ 75	–	≥ 75	–	–
O=C(c1cnn(C(=O)N2CCC3(CCN(Cc4cc(Cl)cc(C(F)(F)F)c4)C3)C2)c1)N1CCOCC1 (stereo not shown) [Example 35, (1-(7-(3-chloro-5-(trifluoromethyl)benzyl)-2,7-diazaspiro[4.4]nonane-2-carbonyl)-1H-pyrazol-4-yl)(morpholino)methanone]	–	25 to 50	–	≥ 75	–	–
O=C(c1cnn(C(=O)N2CCC3(CCN(Cc4cc(Cl)cc(C(F)(F)F)c4)C3)C2)c1)N1CCN(C2CC2)CC1 (stereo not shown) [Example 36, (1-(7-(3-chloro-5-(trifluoromethyl)benzyl)-2,7-diazaspiro[4.4]nonane-2-carbonyl)-1H-pyrazol-4-yl)(4-cyclopropylpiperazin-1-yl)methanone]	–	≥ 75	–	≥ 75	–	–
